Holding throughout (test): NCI anticancer screen, dose series, 48 h
Experiment [1] deals with NCI-H23.
Experiment [2] relates to SK-MEL-2.
The test system of experiment [3] is MCF7.
In experiment [4] the test system is SF-295.
Experiment [5] deals with SR.
For experiment [6], the system named is HCT-116.
In experiment [7] the test system is DU-145.
The subject of experiment [8] is SF-268.
The subject of experiment [9] is M14.
Experiment [10] has as its system OVCAR-3.
Experiment [11] concerns MDA-MB-435.
The test system of experiment [12] is HCT-15.
The test system of experiment [13] is RPMI-8226.
The subject of experiment [14] is HL-60.
Experiment [15] has as its system KM12.
The subject of experiment [16] is OVCAR-5.
Experiment [17] relates to SNB-75.
Experiment [18] concerns Malme-3M.
In experiment [19] the test system is MDA-N.
The subject of experiment [20] is NCI-H522.

Here are results for 10 compounds from ChEMBL document CHEMBL1201862, “PubChem BioAssay data set” (2004).

Each structure is given as a SMILES string.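 Cultured in 96-well plates, cells were exposed to test compound for 48 hours across five concentrations. GI50 = concentration required for 50% inhibition of growth.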 Activity calls are given as the source filed them. No stated cut-off is given here; in the data, active = GI50 up to about 1.1 µM and inactive = higher. Some results are limits rather than exact numbers.

Take `N=C(N)NC(=N)Nc1ccc(S(=O)(=O)O)cc1`: the GI50 in experiment [1], in [2], in experiment [3], in [4], in [5] and in experiment [6] was > 100 µM (inactive) in each case. Besides, the GI50 in experiment [7] is > 100 µM (inactive); in experiment [8], > 100 µM (inactive); in experiment [9], > 100 µM (inactive); in experiment [10], > 100 µM (inactive); in experiment [11], > 100 µM (inactive); in experiment [12], more than 100 µM. Moreover, the GI50 in experiment [13], in experiment [14], in [15], in experiment [16], in experiment [17] and in [18] was > 100 µM (inactive) in each case. Moreover, the GI50 in experiment [19] and in experiment [20] was > 100 µM (inactive) each time.
On to `COC(=O)/C=C(\S/C(=N\n1cc(C(=O)OC)c(C(=O)OC)c1-c1ccc(C)cc1)c1ccc(C)cc1)C(=O)OC`, for which the GI50 in experiment [1] was 5.62 µM (inactive); in experiment [2] it was 6.12 µM (inactive); in [3], 6.7 µM (inactive); in experiment [4] it was 32.8 µM (inactive); in [5], 1.16 µM (inactive); in experiment [6], 1.97 µM (inactive). Also, the GI50 in [7] is 6.78 µM (inactive); in experiment [8], 16.1 µM (inactive); in experiment [9] it was 5.94 µM (inactive); in experiment [10], 4.67 µM (inactive); in experiment [11] it was 5.94 µM (inactive); in experiment [12], 2.28 µM. Further, the GI50 in experiment [13] is 1.44 µM (inactive); in experiment [14] it was 4.62 µM (inactive); in experiment [15] it was 19.1 µM (inactive); in experiment [16], 6.7 µM (inactive); in experiment [17], 11.5 µM (inactive); in experiment [18], 6.52 µM (inactive). Besides, the values for the GI50 in [19] and in experiment [20] were 5.79 µM (inactive) and 1.67 µM (inactive), respectively.
Turning to `O=C(NCCNCCNCCNC(=O)c1cc(-c2ccccc2)nc2ccccc12)c1cc(-c2ccccc2)nc2ccccc12`, the GI50 in experiment [1] is 3.15 µM (inactive); in experiment [2], 1.54 µM (inactive); in experiment [3], 2.04 µM (inactive); in [4], 1.67 µM (inactive); in experiment [5], 2.02 µM (inactive); in [6], 1.88 µM (inactive). Further, the GI50 in [7] is 3.24 µM (inactive); in experiment [8], 3.4 µM (inactive); in experiment [9], 1.82 µM (inactive); in experiment [10], 2.64 µM (inactive); in experiment [11], 1.81 µM (inactive); in [12], 7.08 µM. Further, the GI50 in [13] was 2.45 µM (inactive); in experiment [14], 1.74 µM (inactive); in [15], 2.24 µM (inactive); in experiment [16], 1.87 µM (inactive); in experiment [17] it was 1.78 µM (inactive); in experiment [18], 1.87 µM (inactive). The GI50 in experiment [19] is 1.6 µM (inactive); in experiment [20], 1.67 µM (inactive).
In the case of `COc1cc2c(c(OC)c1OC)-c1ccc(OC)c(=O)cc1[C@@H](NC(=O)c1ccccc1)CC2`, the GI50 in [1] is 0.0128 µM (active); in experiment [2], 0.012 µM (active); in [3], < 0.0146 µM (active); in experiment [4] it was 0.0136 µM (active); in experiment [5], 0.155 µM (active); in [6], 0.0126 µM (active). The GI50 in [7] is 0.0199 µM (active); in experiment [8], 0.0154 µM (active); in [9] it was 0.0118 µM (active); in experiment [10] it was < 0.0103 µM (active); in experiment [11], < 0.01 µM (active); in [12], 0.021 µM. Besides, the GI50 is 0.0608 µM (active) in [13]; < 0.01 µM (active) in experiment [14]; 0.0106 µM (active) in [15]; 1.07 µM (active) in [16]; < 0.0327 µM (active) in experiment [17]; 0.016 µM (active) in experiment [18]. The GI50 in [19] is < 0.01 µM (active); in experiment [20], 0.0114 µM (active).
Turning to `CC[n+]1c(/C=C/c2ccc(N(CCCl)CCCl)cc2)ccc2cc(NC(=O)/C=C/c3ccccc3)ccc21`, the GI50 in experiment [1] is 0.482 µM (active); in experiment [2], 0.431 µM (active); in [3] it was 0.139 µM (active); in experiment [4], 0.45 µM (active); in experiment [5] it was 0.189 µM (active); in [6], 0.317 µM (active). The GI50 was 0.288 µM (active) in experiment [7]; 0.393 µM (active) in experiment [8]; 0.436 µM (active) in [9]; 1.75 µM (inactive) in experiment [10]; 0.288 µM (active) in experiment [11]; 14.2 µM in experiment [12]. Moreover, the GI50 in experiment [13] is 0.218 µM (active); in [14] it was 0.115 µM (active); in experiment [15], 0.423 µM (active); in [16], 0.748 µM (active); in [17], 0.131 µM (active); in experiment [18] it was 0.291 µM (active). Further, the GI50 was 0.6 µM (active) in experiment [19] and 0.218 µM (active) in experiment [20].
For `CCN(CC)CCC1CCCCN1CC(=O)N1c2ccccc2NC(=O)CC1C` (stereo not given), the GI50 in experiment [1], in [2], in [3], in experiment [4], in experiment [5] and in experiment [6] was > 100 µM (inactive) in each case. In addition, the GI50 was > 100 µM (inactive) in [7]; > 100 µM (inactive) in [8]; > 100 µM (inactive) in experiment [9]; > 100 µM (inactive) in experiment [10]; > 100 µM (inactive) in experiment [11]; more than 100 µM in [12]. For the same compound, the GI50 is > 100 µM (inactive) in experiment [13]; > 100 µM (inactive) in experiment [14]; > 100 µM (inactive) in [15]; > 100 µM (inactive) in experiment [16]; 0.0933 µM (active) in [17]; > 100 µM (inactive) in [18]. In addition, the GI50 in experiment [19] and in experiment [20] was > 100 µM (inactive) throughout.
`O=C(O)[C@H](c1ccccc1)[C@@H](C(=O)O)c1ccccc1`: the GI50 in experiment [1], in [2], in experiment [3], in experiment [4], in experiment [5] and in experiment [6] was > 100 µM (inactive) each time. The GI50 is > 100 µM (inactive) in experiment [7]; > 100 µM (inactive) in experiment [8]; > 100 µM (inactive) in experiment [9]; > 100 µM (inactive) in experiment [10]; > 100 µM (inactive) in experiment [11]; more than 100 µM in [12]. In addition, the GI50 is > 100 µM (inactive) in experiment [13]; 0.228 µM (active) in experiment [14]; > 100 µM (inactive) in experiment [15]; > 100 µM (inactive) in [16]; > 100 µM (inactive) in [17]; > 100 µM (inactive) in experiment [18]. Further, the GI50 in [19] and in experiment [20] was > 100 µM (inactive) in each case.
`Nc1nc(N)c2nc(CN(C=O)c3ccc(C(=O)O)cc3)cnc2n1`: the GI50 in [1] is 20 µM (inactive); in [2], > 100 µM (inactive); in experiment [3] it was 5.31 µM (inactive); in experiment [4], 17.1 µM (inactive); in experiment [5], 10.1 µM (inactive); in experiment [6], 3.84 µM (inactive). The GI50 in experiment [7] is 7.38 µM (inactive); in experiment [8] it was 9.68 µM (inactive); in experiment [9], 7.43 µM (inactive); in experiment [10], > 100 µM (inactive); in experiment [11] it was 17.9 µM (inactive); in [12] it was 7.14 µM. For the same compound, the GI50 was 14.7 µM (inactive) in experiment [13]; 18.8 µM (inactive) in experiment [14]; 6.64 µM (inactive) in experiment [15]; > 70 µM (inactive) in [16]; > 52.1 µM (inactive) in experiment [17]; 8.18 µM (inactive) in experiment [18]. Also, the GI50 is 8.71 µM (inactive) in experiment [19] and 0.438 µM (active) in experiment [20].
Regarding `CC(C)(Cl)C(Cl)CC/C(CBr)=C(\Cl)CCl` (stereo not given), the GI50 was 3.87 µM (inactive) in [1]; 2.47 µM (inactive) in experiment [2]; 11 µM (inactive) in [3]; 16.3 µM (inactive) in experiment [4]; 0.485 µM (active) in [5]; 3.93 µM (inactive) in experiment [6]. Further, the GI50 is 13.4 µM (inactive) in [7]; 7.8 µM (inactive) in experiment [8]; 1.81 µM (inactive) in experiment [9]; 4.48 µM (inactive) in [10]; 3.36 µM (inactive) in experiment [11]; 1.97 µM in [12]. For the same compound, the GI50 in experiment [13] was 1.89 µM (inactive); in [14] it was 0.582 µM (active); in experiment [15], 7.01 µM (inactive); in experiment [16], 14.7 µM (inactive); in [17], 4.45 µM (inactive); in experiment [18], 6.85 µM (inactive). Besides, the GI50 in experiment [19] was 2.21 µM (inactive); in experiment [20], 0.658 µM (active).
As to `CN1C(c2ccccc2)=CC(=O)C(O)=C(c2ccccc2)S1(=O)=O`, the GI50 in [1], in [2], in [3], in experiment [4], in experiment [5] and in experiment [6] was > 100 µM (inactive) each time. The GI50 in experiment [7] is > 100 µM (inactive); in experiment [8], > 100 µM (inactive); in [9], > 100 µM (inactive); in experiment [10] it was > 100 µM (inactive); in [11], > 100 µM (inactive); in experiment [12] it was more than 100 µM. The GI50 in experiment [13], in experiment [14], in [15], in [16], in experiment [17] and in [18] was > 100 µM (inactive) throughout. The GI50 in experiment [19] and in experiment [20] was > 100 µM (inactive) in each case.
